Where two headings read alike, the source gives them in different places.
Legend:
[1] = rat, in vivo
Procedure: (§1) Animals accessed feed and water ad libitum.
(§2) For mass spectrometry-based MxP™ Broad Profiling analyses samples were extracted by a proprietary method yielding a lipid and polar fraction which were used for GC-MS (gas chromatography-mass spectrometry) and LC-MS/MS (liquid chromatography-MS/MS) analyses, respectively. For GC-MS analytics the samples were sequentially derivatized before measurement and the non-polar fraction was treated with methanol under acidic conditions to yield the fatty acid methyl esters derived from both free fatty acids and hydrolyzed complex lipids. The non-polar and polar fractions were further derivatized before GC-MS analysis (Roessner et al., Technical advance: simultaneous analysis of metabolites in potato tuber by gas chromatography-mass spectrometry. Plant J. 2000; 23:131-42). In LC-MS/MS analysis a metanomics proprietary technology was applied which allows target and high sensitivity MRM (Multiple Reaction Monitoring) profiling in parallel to full scan analyses (patent WO2003073464). For LC-MS analysis, both fractions were reconstituted in appropriate solvent mixtures. HPLC (high-performance liquid chromatography) was performed on reversed phase separation columns. Data were normalized by the corresponding median of reference samples which derived from a pool formed from aliquots of all samples to account for inter- and intra-instrumental variation. Therefore, pool-normalized semi-quantitative metabolite data were obtained.

mouse/rat liver tissue = details: after administration of hepatotoxic doses of carbon tetrachloride; cited from earlier work
mouse liver tissue = details: cited from earlier work
[2] = Metabolite profiling of plasma (GC-MS and LC-MS/MS) of rats treated with APAP vs. vehicle; details: for plasma metabolite in treated (1250 mg/kg) vs. untreated animals: FIG. 1, rats, 1250 mg/kg APAP vs. vehicle, most obvious at 6 and 24 hours; for 1250 mg vs. 0 mg (6 h) Ratio / 1250 mg vs. 0 mg (3 d) Ratio / 1250 mg vs. 0 mg (7 d) Ratio: rat plasma metabolite level, treated with 1250 mg/kg APAP vs. untreated, ANOVA; for 1250 mg vs. 0 mg (3 d) Ratio: 3 days; for 1250 mg vs. 0 mg (7 d) Ratio: 7 days
Procedure: as §1, §2

Compound: CC(=O)Nc1ccc(O)cc1 [APAP, N-(4-hydroxyphenyl)acetamide, reference compound]
- differences between the test and the control samples [1]: no statistically significant differences

Compound: NCCCCN [Putrescine, Butane-1,4-diamine]
- putrescine in mouse/rat liver tissue (mouse/rat liver tissue): increased
- plasma metabolite in treated (1250 mg/kg) vs. untreated animals [1]: increased
- tissue levels of putrescine (mouse liver tissue; 18 hours after administration of acetaminophen): Elevated
- putrescine in mouse liver tissue after treatment with acetaminophen (mouse liver tissue; mouse liver tissue): increased
- tissue levels of putrescine (mouse liver tissue; tissue samples obtained after 6 and 12 hours): no elevated putrescine levels

Compound: Lysophosphatidylcholine (C18:1)
- plasma metabolite in treated (1250 mg/kg) vs. untreated animals [2]: decreased
- 1250 mg vs. 0 mg (6 h) Ratio [2]: 0.95
- 1250 mg vs. 0 mg (3 d) Ratio [2]: 1.10
- 1250 mg vs. 0 mg (7 d) Ratio [2]: 1.02

Compound: NCCOP(=O)(O)O [O-Phosphoethanolamine, o-phosphoethanolamine]
- plasma metabolite in treated (1250 mg/kg) vs. untreated animals [2]: increased
- 1250 mg vs. 0 mg (6 h) Ratio [2]: 1.52
- 1250 mg vs. 0 mg (3 d) Ratio [2]: 1.06
- 1250 mg vs. 0 mg (7 d) Ratio [2]: 1.07

Compound: O[C@H]1[C@H](O)[C@@H](O)[C@H](O)[C@@H](O)[C@H]1O [myo-Inositol, lipid fraction, myo-inositol]
- plasma metabolite in treated (1250 mg/kg) vs. untreated animals [2]: increased
- 1250 mg vs. 0 mg (6 h) Ratio [2]: 1.28
- 1250 mg vs. 0 mg (3 d) Ratio [2]: 1.04
- 1250 mg vs. 0 mg (7 d) Ratio [2]: 1.02

Reference: US20170176477A1 (Metanomics Health GmbH, priority 2012, published 2017)
